According to patent US7408024B2, “Somatostatin antagonists” (The Administrators of the Tulane Educational Fund, priority 2001, dated 2008):
Where a SMILES comes first, the peptide text is derived from it. Bridges are numbered along the chain shown (N, C = ends). [ ]: non-standard residue; d: D form. Phe(4-Cl) = N[C@@H](Cc1ccc(Cl)cc1)C(=O)O; dNMeW = CN[C@H](Cc1c[nH]c2ccccc12)C(=O)O; Dip = N[C@H](C(=O)O)C(c1ccccc1)c1ccccc1; 2Nal = N[C@@H](Cc1ccc2ccccc2c1)C(=O)O; NMeT = CN[C@H](C(=O)O)[C@@H](C)O; 3Pal = N[C@@H](Cc1cccnc1)C(=O)O; NMeK = CN[C@@H](CCCCN)C(=O)O; NMeC = CN[C@@H](CS)C(=O)O; dNMeC = CN[C@H](CS)C(=O)O

Legend:
[1] = target: T1, hsst5 (Homo sapiens, UniProt P35346); experiment: Radioligand binding, cloned human sst5 receptor (CHO-K1 membranes); details: [125I]Tyr11-SRIF, CHO-K1 cell membranes; single values = one binding experiment; read-out: K1 ± SEM hsst5
T1 construct: each containing the entire coding region of the full-length receptors; expressed in transfected cells
From the text: (§1) The genomic clones containing the human somatostatin receptors (hsstr1-5) (Yamada, Y., et al. al., Proc. Natl. Acad. Sci. USA. 1992, 89, 251-255; Yasuda, K., et al., J. Biol. Chem. 1992, 267, 20422-20428; Yamada, Y., et al., Mol. Pharmacol. 1992, 42, 2136-2142; Rohrer, L., et al., Proc. Natl. Acad. Sci. USA. 1993, 90, 4196-4200.), were kindly provided by Dr. Graeme I. Bell (University of Chicago). The hsstr1, hsstr2, hsstr3, hsstr4 and hsstr5 cDNAs were isolated as a 1.5-kb PstI-XmnI fragment, 1.7-kb BamHI-HindIII fragment, 2.0-kb NcoI-HindIII fragment, 1.4-kb NheI-NdeI fragment, and a 1.2-kb HindIII-XbaI fragment, respectively, each containing the entire coding region of the full-length receptors. These fragments were independently subdloned into the corresponding restriction endonuclease sites in the mammalian expression vector pCMV5, downstream from the human cytomegalovirus (CMV) promoter, to produce the expression plasmids pCMV5/hsstr1, pCMV5/hsstr2, pCMV5/hsstr3, pCMV5/hsstr4 and pCMV5/hsstr5. For transfection into CHO-K1 cells, a plasmid, pRSV-neo (American Type Culture Collection, Rockville, Md.), carrying the neomycin mammalian cell selectable marker was added.
(§2) Transfections were performed by the calcium phosphate method. CHO-K1 cells are maintained in α-minimum essential medium (α-MEM; Gibco) supplemented with 10% fetal calf serum and transfected with each of the expression plasmids using calcium phosphate precipitation. Clones that had inherited the expression plasmid were selected in α-MEM supplemented with 500 μg mL^−1 of geneticin (G418; Gibco). Independent CHO-K1 clones were picked by glass-ring cloning and expanded in culture in the selective media. Membranes were prepared from the isolated clones and hsstr expression was initially assessed for binding with [^125I]Tyr^11-SRIF and [^125]IMK-678 (for sstr2).
(§3) Cell membranes of the 5 receptor types were obtained from homogenates (Polytron setting 6, 15 sec) of the corresponding CHO-K1 cells, in ice-cold Tris-HCl (50 mM) and centrifuged (39000 g, 10 min×2), with an intermediate resuspension in fresh buffer. The final pellets are resuspended in Tris-HCl (10 mM) for assay. Aliquots of the membranes are incubated (30 min at 37° C.) with 0.05 nM [^125I]Tyr^11-SRIF (types 1,3,4,5) or [^125I]MK-678 (type 2) in 50 mM HEPES (pH 7.4) containing BSA (10 mg mL^−1); MgCl2 (5 mM), Trasylol (200 kIU mL^−1), bacitracin (0.02 mg mL^−1), and phenylmethanesulfonyl fluoride (0.02 mg mL^−1). The final assay volume is 0.3 mL and incubations are terminated by rapid filtration through GF/C filters pre-soaked in 0.3% poly(ethylenimine) using a Brandel rapid filtration module. Each tube and filter is then washed with aliquots of cold buffer (3×5 mL).
(§4) Specific binding is. defined as the total radioligand bound minus that bound in the presence of 1.0 μM SRIF.

[2] = target: T2, hsst2 (Homo sapiens, UniProt P30874); experiment: Radioligand binding, cloned human sst2 receptor (CHO-K1 membranes); details: [125I]MK-678, CHO-K1 cell membranes; single values = one binding experiment; read-out: K1 ± SEM hsst2
T2 construct: each containing the entire coding region of the full-length receptors; expressed in transfected cells
From the text: as §1, §2, §3, §4

[3] = target: T3, hsst3 (Homo sapiens, UniProt P32745); experiment: Radioligand binding, cloned human sst3 receptor (CHO-K1 membranes); details: [125I]Tyr11-SRIF, CHO-K1 cell membranes; single values = one binding experiment; read-out: K1 ± SEM hsst3
T3 construct: each containing the entire coding region of the full-length receptors; expressed in transfected cells
From the text: as §1, §2, §3, §4

[4] = target: T4, hsst4 (Homo sapiens, UniProt P31391); experiment: Radioligand binding, cloned human sst4 receptor (CHO-K1 membranes); details: [125I]Tyr11-SRIF, CHO-K1 cell membranes; single values = one binding experiment; read-out: K1 ± SEM hsst4
T4 construct: each containing the entire coding region of the full-length receptors; expressed in transfected cells
From the text: as §1, §2, §3, §4

[5] = target: T5, hsst1 (Homo sapiens, UniProt P30872); experiment: Radioligand binding, cloned human sst1 receptor (CHO-K1 membranes); details: [125I]Tyr11-SRIF, CHO-K1 cell membranes; single values = one binding experiment; read-out: K1 ± SEM hsst1
T5 construct: each containing the entire coding region of the full-length receptors; expressed in transfected cells
From the text: as §1, §2, §3, §4

[6] = test system: SRIF inhibition of GH release in rat anterior pituitary cells; type: cell-based
Method: Anterior pituitaries from adult male rats were collected and dispersed by a previously described trypsin/DNase method. (Murphy, W. A.; Taylor, J.; Moreau, J.-P. and Coy, D. […] Sigma) and nystatin (10,000 U mL^−1; Gibco). The cells were randomly plated at a density of approximately 200,000 cells/well (Costar cluster 24; Rochester Scientific Co., Rochester, N.Y.). The plated cells were maintained in the above Dulbecco's medium in a humidified atmosphere of 95% air/5% CO2 at 37° C. for 4-6 days. In preparation for a hormone challenge, the cells were washed with medium 199 (Gibco, 3×1 mL). […] Sigma Chemical Co.). […] After 3 h incubation in an air/carbon dioxide atmosphere (95/5%, 3 h at 37° C.), the medium was removed and stored at −20° C. until assayed for hormone content. Growth hormone in media was measured by a standard double antibody RIA using components generously supplied by Dr. A. F. Parlow at the National Hormone and Pituitary Program (NHHP) Torrance, Calif.

T4 sequence (P31391 whole entry): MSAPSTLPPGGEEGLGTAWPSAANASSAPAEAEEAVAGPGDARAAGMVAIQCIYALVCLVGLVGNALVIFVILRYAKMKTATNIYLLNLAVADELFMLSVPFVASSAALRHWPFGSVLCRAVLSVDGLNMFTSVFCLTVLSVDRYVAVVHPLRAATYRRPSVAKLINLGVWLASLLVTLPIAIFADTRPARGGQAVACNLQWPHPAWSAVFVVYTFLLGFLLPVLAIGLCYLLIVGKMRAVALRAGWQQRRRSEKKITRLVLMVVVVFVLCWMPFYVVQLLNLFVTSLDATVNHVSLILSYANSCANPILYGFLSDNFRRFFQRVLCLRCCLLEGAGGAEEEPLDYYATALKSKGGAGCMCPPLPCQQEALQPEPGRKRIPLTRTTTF
T1 sequence (P35346 whole entry): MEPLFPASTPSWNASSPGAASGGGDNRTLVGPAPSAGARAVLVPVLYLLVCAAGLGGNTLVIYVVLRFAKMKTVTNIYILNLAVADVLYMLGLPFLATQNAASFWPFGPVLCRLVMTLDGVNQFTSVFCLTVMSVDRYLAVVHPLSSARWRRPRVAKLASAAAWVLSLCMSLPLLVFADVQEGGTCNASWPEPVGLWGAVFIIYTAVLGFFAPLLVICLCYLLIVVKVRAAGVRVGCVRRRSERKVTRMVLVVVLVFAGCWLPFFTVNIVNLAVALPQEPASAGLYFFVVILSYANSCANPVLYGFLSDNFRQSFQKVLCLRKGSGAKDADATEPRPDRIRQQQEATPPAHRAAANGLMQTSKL
T2 sequence (P30874 whole entry): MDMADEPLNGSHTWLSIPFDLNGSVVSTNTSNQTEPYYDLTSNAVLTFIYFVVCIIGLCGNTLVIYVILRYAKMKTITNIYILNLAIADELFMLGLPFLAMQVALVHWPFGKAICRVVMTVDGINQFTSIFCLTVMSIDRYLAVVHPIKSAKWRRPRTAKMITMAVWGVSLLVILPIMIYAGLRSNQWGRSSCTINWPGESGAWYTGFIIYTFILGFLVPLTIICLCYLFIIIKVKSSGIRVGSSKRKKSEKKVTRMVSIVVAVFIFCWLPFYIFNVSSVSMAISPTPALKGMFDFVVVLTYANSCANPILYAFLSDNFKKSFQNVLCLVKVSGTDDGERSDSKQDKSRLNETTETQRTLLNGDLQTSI
T5 sequence (P30872 whole entry): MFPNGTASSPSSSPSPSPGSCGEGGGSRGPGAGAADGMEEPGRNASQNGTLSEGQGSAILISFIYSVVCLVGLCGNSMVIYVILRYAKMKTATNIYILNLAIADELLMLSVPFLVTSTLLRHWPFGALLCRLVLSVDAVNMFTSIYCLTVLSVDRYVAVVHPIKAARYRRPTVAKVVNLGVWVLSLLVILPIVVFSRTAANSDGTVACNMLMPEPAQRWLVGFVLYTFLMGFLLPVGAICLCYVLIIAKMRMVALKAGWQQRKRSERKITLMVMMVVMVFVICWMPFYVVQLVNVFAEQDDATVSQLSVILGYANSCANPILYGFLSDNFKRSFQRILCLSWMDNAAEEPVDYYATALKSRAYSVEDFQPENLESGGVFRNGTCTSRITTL
T3 sequence (P32745 whole entry): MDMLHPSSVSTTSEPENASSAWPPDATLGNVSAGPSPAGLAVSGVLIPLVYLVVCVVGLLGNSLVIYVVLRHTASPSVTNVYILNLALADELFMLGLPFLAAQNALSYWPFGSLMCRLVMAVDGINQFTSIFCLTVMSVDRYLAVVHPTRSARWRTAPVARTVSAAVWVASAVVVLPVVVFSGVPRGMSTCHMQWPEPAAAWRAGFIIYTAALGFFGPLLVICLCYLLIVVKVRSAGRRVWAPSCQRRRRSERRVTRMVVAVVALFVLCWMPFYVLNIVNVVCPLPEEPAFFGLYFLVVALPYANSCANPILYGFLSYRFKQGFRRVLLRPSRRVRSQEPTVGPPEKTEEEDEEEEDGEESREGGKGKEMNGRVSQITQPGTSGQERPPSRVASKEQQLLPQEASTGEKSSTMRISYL

Row | SMILES | Ki [1] [nM] | Ki [2] [nM] | Ki [3] [nM] | Ki [4] [nM] | Ki [5] [nM] | IC50 [6] [nM]
1 | CNC(=O)[C@H](Cc1ccc2ccccc2c1)NC(=O)[C@@H]1CSSC[C@@H](N(C)C(=O)[C@@H](N)Cc2ccc(Cl)cc2)C(=O)N[C@@H](Cc2cccnc2)C(=O)N[C@H](Cc2c[nH]c3ccccc23)C(=O)N[C@@H](CCCCN)C(=O)N[C@@H]([C@@H](C)O)C(=O)N1 [Peptide 2, Cpa-cyclo(NmeDCys-3-Pal-DTrp-Lys-Thr-Cys)-2-Nal-NHMe] (H-[Phe(4-Cl)][dNMeC][3Pal][dW]KTC[2Nal]-NHMe; disulfide 2-7) | 106 ± 36 | 89 ± 8 | 576 ± 47 | 1000 | 1000 | 
2 | CNC(=O)[C@@H](NC(=O)[C@@H]1CSSC[C@@H](N(C)C(=O)[C@@H](N)Cc2ccc(Cl)cc2)C(=O)N[C@@H](Cc2cccnc2)C(=O)N[C@H](Cc2c[nH]c3ccccc23)C(=O)N[C@@H](CCCCN)C(=O)N[C@@H]([C@@H](C)O)C(=O)N1)C(c1ccccc1)c1ccccc1 [Peptide 10, Cpa-cyclo(NMeDCys-3-Pal-DTrp-Lys-Thr-Cys)-Dip-NHMe] (H-[Phe(4-Cl)][dNMeC][3Pal][dW]KTC[Dip]-NHMe; disulfide 2-7) | 766 ± 110 | 117 ± 24.6 | 584 ± 305 | 1000 | 1000 | 
3 | C[C@@H](O)[C@@H]1NC(=O)[C@H](CCCCN)NC(=O)[C@@H](Cc2c[nH]c3ccccc23)NC(=O)[C@H](Cc2cccnc2)NC(=O)[C@H](NC(=O)[C@@H](N)Cc2ccc(Cl)cc2)CSSC[C@@H](C(=O)N[C@@H](Cc2ccc3ccccc3c2)C(N)=O)N(C)C1=O [Peptide 7, Cpa-cyclo(DCys-3-Pal-DTrp-Lys-Thr-NmeCys)-2-Nal-NH2] (H-[Phe(4-Cl)][dC][3Pal][dW]KT[NMeC][2Nal]-NH2; disulfide 2-7) |  | 810 | 68.7 ± 4.7 | 575 |  | 
4 | C[C@@H](O)[C@@H]1NC(=O)[C@H](CCCCN)NC(=O)[C@@H](Cc2c[nH]c3ccccc23)NC(=O)[C@H](Cc2cccnc2)N(C)C(=O)[C@H](NC(=O)[C@@H](N)Cc2ccc(Cl)cc2)CSSC[C@@H](C(=O)N[C@@H](Cc2ccc3ccccc3c2)C(N)=O)NC1=O [Peptide 3, Cpa-cyclo(DCys-Nme3-Pal-DTrp-Lys-Thr-Cys)-2-Nal-NH2] |  | 189 ± 35 | 450 ± 132 |  |  | 
5 | C[C@@H](O)[C@@H]1NC(=O)[C@H](CCCCN)NC(=O)[C@@H](Cc2c[nH]c3ccccc23)N(C)C(=O)[C@H](Cc2cccnc2)NC(=O)[C@H](NC(=O)[C@@H](N)Cc2ccc(Cl)cc2)CSSC[C@@H](C(=O)N[C@@H](Cc2ccc3ccccc3c2)C(N)=O)NC1=O [Peptide 4, Cpa-cyclo(DCys-3-Pal-NMeDTrp-Lys-Thr-Cys)-2-Nal-NH2] (H-[Phe(4-Cl)][dC][3Pal][dNMeW]KTC[2Nal]-NH2; disulfide 2-7) | 93 ± 17.7 | 51.8 ± 2.6 | 390 ± 114 |  |  | 
6 | C[C@@H](O)[C@@H]1NC(=O)[C@H](CCCCN)N(C)C(=O)[C@@H](Cc2c[nH]c3ccccc23)NC(=O)[C@H](Cc2cccnc2)NC(=O)[C@H](NC(=O)[C@@H](N)Cc2ccc3ccccc3c2)CSSC[C@@H](C(=O)N[C@H](Cc2c[nH]c3ccccc23)C(N)=O)NC1=O [Peptide 15, Nal-cyclo(DCys-3-Pal-DTrp-NMeLys-Thr-Cys)-DTrp-NH2] (H-[2Nal][dC][3Pal][dW][NMeK]TC[dW]-NH2; disulfide 2-7) | 176 ± 65.1 | 27.3 ± 1.45 |  | 1000 | 1000 | 
7 | C[C@@H](O)[C@H]1C(=O)N[C@H](C(=O)N[C@@H](Cc2ccc3ccccc3c2)C(N)=O)CSSC[C@@H](NC(=O)[C@@H](N)Cc2ccc(Cl)cc2)C(=O)N[C@@H](Cc2cccnc2)C(=O)N[C@H](Cc2c[nH]c3ccccc23)C(=O)N[C@@H](CCCCN)C(=O)N1C [Peptide 6, Cpa-cyclo(DCys-3-Pal-DTrp-Lys-NMeThr-Cys)-2-Nal-NH2] (H-[Phe(4-Cl)][dC][3Pal][dW]K[NMeT]C[2Nal]-NH2; disulfide 2-7) |  | 1000 | 315 ± 12.5 | 1000 | 395 ± 202 | 

Stronger by Ki [2], values ahead:

Row | Ki [1] [nM] | Ki [2] [nM] | Ki [3] [nM] | Ki [4] [nM] | Ki [5] [nM] | IC50 [6] [nM] | SMILES
8 | 5.98 ± 0.91 | 17.1 ± 5.5 | 66 ± 5.8 |  |  |  | C[C@@H](O)[C@@H]1NC(=O)[C@H](CCCCN)N(C)C(=O)[C@@H](Cc2c[nH]c3ccccc23)NC(=O)[C@H](Cc2cccnc2)NC(=O)[C@H](NC(=O)[C@@H](N)Cc2ccc(Cl)cc2)CSSC[C@@H](C(=O)N[C@@H](Cc2ccc3ccccc3c2)C(N)=O)NC1=O [Peptide 5, Cpa-cyclo(DCys-3-Pal-DTrp-NMeLys-Thr-Cys)-2-Nal-NH2] (H-[Phe(4-Cl)][dC][3Pal][dW][NMeK]TC[2Nal]-NH2; disulfide 2-7)
9 |  | 12.1 ± 1.9 | 38.2 ± 2.4 | 1000 |  |  | C[C@@H](O)[C@@H]1NC(=O)[C@H](CCCCN)NC(=O)[C@@H](Cc2c[nH]c3ccccc23)NC(=O)[C@H](Cc2cccnc2)NC(=O)[C@H](NC(=O)[C@@H](N)Cc2ccc(Cl)cc2)CSSC[C@@H](C(=O)N[C@@H](Cc2ccc3ccccc3c2)C(N)=O)NC1=O [Peptide 9, Cpa-cyclo(DCys-3-Pal-DTrp-Lys-Thr-Cys)-Nal-NH2]
10 |  | 5.45 ± 0.3 | 91.4 ± 11.9 |  |  |  | C[C@@H](O)[C@@H]1NC(=O)[C@H](CCCCN)N(C)C(=O)[C@@H](Cc2c[nH]c3ccccc23)NC(=O)[C@H](Cc2cccnc2)NC(=O)[C@H](NC(=O)[C@@H](N)Cc2ccc(Cl)cc2)CSSC[C@@H](C(=O)N[C@H](Cc2c[nH]c3ccccc23)C(N)=O)NC1=O [Peptide 14, Cpa-cyclo(DCys-3-Pal-DTrp-NMeLys-Thr-Cys)-DTrp-NH2] (H-[Phe(4-Cl)][dC][3Pal][dW][NMeK]TC[dW]-NH2; disulfide 2-7)
11 | 313 ± 4.1 | 24.7 ± 1.61 | 537 ± 44.8 |  |  |  | C[C@@H](O)[C@@H]1NC(=O)[C@H](CCCCN)N(C)C(=O)[C@@H](Cc2c[nH]c3ccccc23)NC(=O)[C@H](Cc2cccnc2)NC(=O)[C@H](NC(=O)[C@@H](N)Cc2cccnc2)CSSC[C@@H](C(=O)N[C@H](Cc2c[nH]c3ccccc23)C(N)=O)NC1=O [Peptide 16, 3-Pal-cyclo(DCys-3-Pal-DTrp-NMeLys-Thr-Cys)-DTrp-NH2] (H-[3Pal][dC][3Pal][dW][NMeK]TC[dW]-NH2; disulfide 2-7)
12 |  | 5.51 ± 1.85 | 115 ± 16.9 | 1000 | 1000 | 0.53 ± 0.17 | C[C@@H](O)[C@@H]1NC(=O)[C@H](CCCCN)N(C)C(=O)[C@@H](Cc2c[nH]c3ccccc23)NC(=O)[C@H](Cc2ccc(O)cc2)NC(=O)[C@H](NC(=O)[C@@H](N)Cc2ccc(Cl)cc2)CSSC[C@@H](C(=O)N[C@@H](Cc2ccc3ccccc3c2)C(N)=O)NC1=O [Peptide 12, Cpa-cyclo(DCys-Tyr-DTrp-NMeLys-Thr-Cys)-2-Nal-NH2] (H-[Phe(4-Cl)][dC]Y[dW][NMeK]TC[2Nal]-NH2; disulfide 2-7)
